Data reported in patent US8252723B2, “Substituted 1-(3-pyridinyl)pyrazol-4-ylacetic acids, processes for their preparation and their use as herbicides and plant growth regulators” (Bayer CropScience AG, priority 2006, dated 2012).

Test system: summer wheat of the cultivar 'Triso'
Test: Plant growth regulation test: culm stabilization of crop plants
Assay type: in vivo
Conditions: application rate of 30 to 300 g of active substance per hectare, treated at stage BBCH 31, culm length measured after ears had formed
Method: With stirring, the compound of the formula (I) in question was, in the form of a water-dispersible powder, together with a surfactant (customary adjuvant at an application rate of 1 l/ha), mixed with water such that a homogenous spray liquor was formed, and applied at an application rate of 300 l of water/ha (converted).
Seeds of summer wheat of the cultivar ‘Triso’ were sown at a depth of 1 cm in plant pots and cultivated outdoors until treatment.
The plants were treated on a laboratory track sprayer with spray liquors of the test substances at macrostage 3 after having reached about 10% of the maximum longitudinal growth typical for the cultivar (stage BBCH 31) and, after the treatment, returned outdoors.
After the ears had formed, the length of the culms were measured. The culm stabilization was evaluated as a percentage of the untreated control.

Compound	longitudinal growth (culm length) of summer wheat
CCOC(=O)Cc1c(C)nn(-c2cnccc2C)c1-c1ccc(Cl)cc1 [Example 3-1]	effectively shortened
COC(=O)Cc1c(C)nn(-c2cccnc2)c1-c1cccs1 [Example 2-57]	effectively shortened
Cc1nn(-c2ccc(Cl)nc2Cl)c(-c2ccccc2)c1CC(=O)O [Example 1-12]	effectively shortened
Cc1nn(-c2cnccc2Cl)c(-c2ccccc2)c1CC(=O)O [Example 1-30]	effectively shortened
COC(=O)Cc1c(C)nn(-c2cnccc2C)c1-c1ccc(Cl)c(C(F)(F)F)c1 [Example 2-48]	effectively shortened
C#CCOC(=O)Cc1c(C)nn(-c2cccnc2)c1-c1ccccc1 [Example 3-54]	effectively shortened
COC(=O)Cc1c(C)nn(-c2cnccc2C)c1-c1ccc(C)c(C)c1 [Example 2-116]	effectively shortened
COC(=O)Cc1c(C)nn(-c2cnccc2C)c1-c1sccc1C [Example 2-53]	effectively shortened
COC(=O)Cc1c(C)nn(-c2cccnc2)c1-c1ccncc1 [Example 2-126]	effectively shortened
Cc1ccc(-c2c(CC(=O)O)c(C)nn2-c2cnccc2C)cc1Cl [Example 1-49]	effectively shortened
COC(=O)Cc1c(C)nn(-c2cnccc2C)c1-c1ccc(F)cc1 [Example 2-37]	effectively shortened
Cc1ccc(-c2c(CC(=O)O)c(C)nn2-c2cccnc2)cc1Cl [Example 1-46]	effectively shortened
Cc1ccncc1-n1nc(C)c(CC(=O)O)c1-c1ccc(C(=O)O)cc1 [Example 1-39]	effectively shortened
COC(=O)Cc1c(C)nn(-c2cnccc2C)c1-c1ccccc1Cl [Example 2-22]	effectively shortened
COC(=O)Cc1c(C)nn(-c2cncc(C)c2)c1-c1ccccc1 [Example 2-50]	effectively shortened
COC(=O)Cc1c(C)nn(-c2cccnc2)c1-c1ccccc1 [Example 2-2]	effectively shortened
C=C(Cl)COC(=O)Cc1c(C)nn(-c2cccnc2)c1-c1ccc(C)s1 [Example 3-191]	effectively shortened
COC(=O)Cc1c(C)nn(-c2cnccc2Cl)c1-c1ccccc1 [Example 2-30]	effectively shortened
COC(=O)Cc1c(C)nn(-c2cnccc2C)c1-c1cccc(C(F)(F)F)c1 [Example 2-19]	effectively shortened
COC(=O)Cc1c(C)nn(-c2cccnc2)c1-c1ccc(Cl)nc1 [Example 2-134]	effectively shortened
Cc1nn(-c2cccnc2)c(-c2ccc(Cl)cc2)c1CC(=O)OCCN(C)C [Example 3-231]	effectively shortened
Cc1nn(-c2cccnc2)c(-c2ccsc2)c1CC(=O)O [Example 1-63]	effectively shortened

Compound	longitudinal growth (culm length) of summer wheat
Cc1nn(-c2cccnc2)c(-c2ccccc2)c1CC(=O)OCC#Cc1ccccc1 [Example 3-164]	effectively shortened
Cc1ncccc1-n1nc(C)c(CC(=O)O)c1-c1ccccc1 [Example 1-135]	effectively shortened
Cc1csc(-c2c(CC(=O)O)c(C)nn2-c2cnccc2C)c1 [Example 1-54]	effectively shortened
Cc1nn(-c2cccnc2)c(-c2cccs2)c1CC(=O)O [Example 1-57]	effectively shortened
COC(=O)Cc1c(C)nn(-c2ccc(C(F)(F)F)nc2)c1-c1ccccc1 [Example 2-9]	effectively shortened
Cc1nn(-c2cccnc2)c(-c2ccc(Cl)cc2)c1CC(=O)O [Example 1-26]	effectively shortened
COC(=O)Cc1c(C)nn(-c2cccnc2)c1-c1ccc(Cl)s1 [Example 2-60]	effectively shortened
Cc1cncc(-n2nc(C)c(CC(=O)O)c2-c2ccccc2)c1 [Example 1-50]	effectively shortened
COC(=O)Cc1c(C)nn(-c2ccc(C)nc2C)c1-c1ccccc1 [Example 2-11]	effectively shortened
Cc1nn(-c2cccnc2)c(-c2ccc(Cl)cc2)c1CC(=O)OCC1CC1 [Example 3-78]	effectively shortened
COc1cccc(-c2c(CC(=O)O)c(C)nn2-c2cccnc2)n1 [Example 1-145]	effectively shortened
Cc1ccncc1-n1nc(C)c(CC(=O)O)c1-c1ccc(Cl)s1 [Example 1-55]	effectively shortened
Cc1nn(-c2cnccc2[S+](C)[O-])c(-c2ccc(Cl)cc2)c1CC(=O)O (centres unmarked) [Example 1-64]	effectively shortened
COC(=O)Cc1c(C#N)nn(-c2cccnc2)c1-c1ccc(Cl)cc1 [Example 2-147]	effectively shortened
Cc1nn(-c2cccnc2)c(-c2ccccc2)c1CC(=O)OCc1ccccc1 [Example 3-50]	effectively shortened
C#CCOC(=O)Cc1c(C)nn(-c2cccnc2)c1-c1ccncc1 [Example 3-74]	effectively shortened
COc1ccc(-c2c(CC(=O)O)c(C)nn2-c2cnccc2C)cc1 [Example 1-13]	effectively shortened
Cc1ccncc1-n1nc(C)c(CC(=O)O)c1-c1ccc(Cl)c(Cl)c1 [Example 1-20]	effectively shortened
Cc1ccc(-c2c(CC(=O)O)c(C)nn2-c2cccnc2)cc1 [Example 1-16]	effectively shortened
COC(=O)Cc1c(C)nn(-c2cnccc2[S+](C)[O-])c1-c1ccccc1 (centres unmarked) [Example 2-71]	effectively shortened
COC(=O)Cc1c(C)nn(-c2cccnc2)c1-c1ccc(C(C)=O)cc1 [Example 2-121]	effectively shortened
Cc1ccncc1-n1nc(C)c(CC(=O)O)c1-c1ccc(F)cc1 [Example 1-37]	effectively shortened

Compound	longitudinal growth (culm length) of summer wheat
Cc1ccncc1-n1nc(C)c(CC(=O)OCC2CC2)c1-c1ccc(Cl)cc1 [Example 3-98]	effectively shortened
Cc1nn(-c2cccnc2)c(-c2ccc(F)cc2)c1CC(=O)OCC1CC1 [Example 3-91]	effectively shortened
COC(=O)Cc1c(C)nn(-c2cccnc2)c1-c1ccc(Cl)cn1 [Example 2-110]	effectively shortened
Cc1nn(-c2cccnc2)c(-c2ccc(C(=O)O)cc2)c1CC(=O)O [Example 1-42]	effectively shortened
Cc1ccc(-c2c(CC(=O)O)c(C)nn2-c2cccnc2)s1 [Example 1-61]	effectively shortened
CC#CCOC(=O)Cc1c(C)nn(-c2cccnc2)c1-c1ccccn1 [Example 3-136]	effectively shortened
C/C=C/C(C)OC(=O)Cc1c(C)nn(-c2cccnc2)c1-c1ccccc1 (centres unmarked) [Example 3-160]	effectively shortened
Cc1nn(-c2cnccc2C(F)(F)F)c(-c2ccccc2)c1CC(=O)O [Example 1-8]	effectively shortened
CCCc1nn(-c2cccnc2)c(-c2ccc(Cl)cc2)c1CC(=O)OC [Example 2-89]	effectively shortened
Cc1nn(-c2cccnc2)c(-c2ccccc2)c1CC(=O)OCC#CCCl [Example 3-109]	effectively shortened
Cc1ccc(-n2nc(C)c(CC(=O)O)c2-c2ccccc2)c(C)n1 [Example 1-11]	effectively shortened
COC(=O)Cc1c(C)nn(-c2cccnc2)c1-c1cc(C)cc(C)c1 [Example 2-43]	effectively shortened
C#CCOC(=O)Cc1c(C)nn(-c2cccnc2)c1-c1ccc(OC)nc1 [Example 3-63]	effectively shortened
Cc1nn(-c2cccnc2)c(-c2ccc(O)nc2)c1CC(=O)O [Example 1-70]	effectively shortened
Cc1nn(-c2ccc(C(F)(F)F)nc2)c(-c2ccccc2)c1CC(=O)O [Example 1-9]	effectively shortened
C=C(Cl)COC(=O)Cc1c(C)nn(-c2cccnc2)c1-c1sccc1C [Example 3-188]	effectively shortened
C=C(Cl)COC(=O)Cc1c(C)nn(-c2cccnc2)c1-c1ccc(OC)nc1 [Example 3-193]	effectively shortened
Cc1ccncc1-n1ncc(CC(=O)O)c1-c1ccccc1 [Example 1-73]	effectively shortened
C#CCOC(=O)Cc1c(C)nn(-c2cnccc2C)c1-c1ccc(Cl)cc1 [Example 3-75]	effectively shortened
Cc1nn(-c2cccnc2)c(-c2ccc(Cl)cn2)c1CC(=O)O [Example 1-110]	effectively shortened
Cc1nn(-c2cccnc2)c(-c2ccc(C(F)(F)F)cn2)c1CC(=O)O [Example 1-144]	effectively shortened
